According to the NIST ThermoML archive (doi:10.1016/j.fluid.2011.03.030):
Numbers after ± are expanded uncertainties.

Assays:
[1] = Liquid; for viscosity: Capillary tube (Ostwald / Ubbelohde) method; for mass density: Vibrating tube method; for vapor or sublimation pressure / Normal boiling temperature: Ebulliometric method (Recirculating still)
[2] = xn = mol fraction of the nth substance listed; conditions: 101 kPa, Liquid; for viscosity: Capillary tube (Ostwald / Ubbelohde) method; for mass density: Vibrating tube method

CC1CCCCC1 [methylcyclohexane]
[1]
Conditions	mass density, 298.15 K [kg/m3]	mass density, 303.15 K [kg/m3]	mass density, 308.15 K [kg/m3]	mass density, 313.15 K [kg/m3]	viscosity, 298.15 K [mPa·s]	viscosity, 303.15 K [mPa·s]	viscosity, 308.15 K [mPa·s]	viscosity, 313.15 K [mPa·s]
101 kPa	–	760.65 ± 0.21	756.29 ± 0.21	751.93 ± 0.21	–	0.627 ± 0.008	0.581 ± 0.007	0.554 ± 0.007
101.33 kPa	765 ± 0.21	–	–	–	0.678 ± 0.007	–	–	–

[1]
Conditions	vapor or sublimation pressure [kPa]
321.9 K	17.91 ± 0.23
331.5 K	25.77 ± 0.24
336.8 K	31.22 ± 0.25
342.3 K	37.99 ± 0.27
346.9 K	44.45 ± 0.29
350.7 K	50.35 ± 0.31
355.2 K	58.09 ± 0.33
359.1 K	65.61 ± 0.35
362.3 K	72.29 ± 0.37
364.8 K	79.09 ± 0.4
366.4 K	85.13 ± 0.42
369.8 K	92.76 ± 0.44
373.9 K	100.7 ± 0.5

Conditions	Normal boiling temperature [°C]
[1]	98.98 ± 0.03

CC1CCCCC1 [methylcyclohexane] + C1C[C@@H]2[C@H]3CC[C@H](C3)[C@@H]2C1
[2], x1 = 1
Conditions	mass density [kg/m3]	viscosity [mPa·s]
303.15 K	760.65 ± 0.21	0.627 ± 0.008
308.15 K	756.29 ± 0.21	0.581 ± 0.007
313.15 K	751.93 ± 0.21	0.554 ± 0.007

C1C[C@@H]2[C@H]3CC[C@H](C3)[C@@H]2C1 [exo-tetrahydrodicyclopentadiene]
[1]
Conditions	mass density, 298.15 K [kg/m3]	mass density, 303.15 K [kg/m3]	mass density, 308.15 K [kg/m3]	mass density, 313.15 K [kg/m3]	viscosity, 298.15 K [mPa·s]	viscosity, 303.15 K [mPa·s]	viscosity, 308.15 K [mPa·s]	viscosity, 313.15 K [mPa·s]
101 kPa	–	927.41 ± 0.45	923.48 ± 0.44	919.58 ± 0.44	–	2.522 ± 0.034	2.298 ± 0.031	2.107 ± 0.029
101.33 kPa	931.4 ± 0.5	–	–	–	2.739 ± 0.029	–	–	–

[1]
Conditions	vapor or sublimation pressure [kPa]
396 K	16.64 ± 0.23
401.4 K	20.62 ± 0.24
413.8 K	30.3 ± 0.26
418.3 K	34.79 ± 0.28
426.8 K	44.86 ± 0.31
431.2 K	50.7 ± 0.33
434.5 K	55.76 ± 0.35
436.6 K	59.2 ± 0.36
439 K	63.22 ± 0.38
441.1 K	66.63 ± 0.39
442.7 K	69.49 ± 0.4
442.8 K	69.77 ± 0.41
444.3 K	72.58 ± 0.42
445.7 K	75.11 ± 0.43
446.1 K	75.89 ± 0.43
450 K	83.92 ± 0.46
457.3 K	101.1 ± 0.5

Conditions	Normal boiling temperature [°C]
[1]	184.94 ± 0.04

C1C[C@@H]2[C@H]3CC[C@H](C3)[C@@H]2C1 [exo-tetrahydrodicyclopentadiene] + CC1CCCCC1
[2]
Conditions	mass density, 303.15 K [kg/m3]	mass density, 308.15 K [kg/m3]	mass density, 313.15 K [kg/m3]	viscosity, 303.15 K [mPa·s]	viscosity, 308.15 K [mPa·s]	viscosity, 313.15 K [mPa·s]
x2 = 0	927.41 ± 0.45	923.48 ± 0.44	919.58 ± 0.44	2.522 ± 0.034	2.298 ± 0.031	2.107 ± 0.029
x2 = 0.1404	907.42 ± 0.39	903.45 ± 0.39	899.48 ± 0.39	2.047 ± 0.027	1.891 ± 0.025	1.736 ± 0.023
x2 = 0.2593	889.67 ± 0.35	885.65 ± 0.35	881.63 ± 0.35	1.754 ± 0.023	1.616 ± 0.021	1.475 ± 0.019
x2 = 0.3693	872.78 ± 0.32	868.72 ± 0.32	864.67 ± 0.31	1.502 ± 0.019	1.386 ± 0.018	1.275 ± 0.017
x2 = 0.4981	851.85 ± 0.28	847.73 ± 0.28	843.61 ± 0.28	1.258 ± 0.016	1.163 ± 0.015	1.078 ± 0.014
x2 = 0.5813	837.98 ± 0.26	833.82 ± 0.26	829.66 ± 0.26	1.113 ± 0.014	1.02 ± 0.013	0.963 ± 0.012
x2 = 0.6745	821.76 ± 0.25	817.58 ± 0.25	813.38 ± 0.25	0.975 ± 0.012	0.897 ± 0.011	0.862 ± 0.011
x2 = 0.763	805.84 ± 0.23	801.58 ± 0.23	797.33 ± 0.23	0.866 ± 0.011	0.798 ± 0.01	0.754 ± 0.009
x2 = 0.8469	790.22 ± 0.22	785.95 ± 0.22	781.66 ± 0.22	0.772 ± 0.01	0.711 ± 0.009	0.675 ± 0.008
x2 = 0.9245	775.47 ± 0.22	771.16 ± 0.22	766.83 ± 0.22	0.693 ± 0.009	0.644 ± 0.008	0.612 ± 0.008
